According to US10308916B2, “Omega-transaminase mutants with activity improvements toward ketones and methods for producing optically pure amines” (Industry-Academic Cooperation Foundation, Yonsei University, priority 2015, dated 2019):
Like-named read-outs stand apart in the source and are kept apart here.

Experiments:
OATA WT [1] = type: biochemical, Ochrobactrum anthropi; conditions: pH 7
OATA WT [2] = type: biochemical
OATA WT [3] = type: biochemical; remark: listed apart in the source
OATA WT [4] = type: biochemical, Ochrobactrum anthropi
OATA = OATA (Brucella anthropi, UniProt A6WVC6); type: biochemical
OATA WT [5] = type: biochemical, Ochrobactrum anthropi; remark: listed apart in the source
OATA WT [6] = type: biochemical; remark: listed apart in the source
ARTAmut = conditions: cited from earlier work
[7] = test system: (S)-selective omega-transaminase from Ochrobactrum anthropi; conditions: cited from earlier work
OATA W58A [8] = type: biochemical; conditions: pH 7
OATA W58V = type: biochemical; conditions: pH 7
OATA W58I = type: biochemical; conditions: pH 7
OATA W58L = type: biochemical; conditions: pH 7
OATA W58M = type: biochemical; conditions: pH 7
OATA L57A = type: biochemical
OATA W58A [9] = type: biochemical
OATA L57A/W58A = type: biochemical
OATA L57A/W58A/V154A = type: biochemical
OATA WT [10] = type: biochemical, Ochrobactrum anthropi; remark: listed apart in the source
CC(=O)C(=O)O = experiment: purified protein, by the assay type

Molecule	Relative activity to acetophenone, OATA WT (OATA WT [1])	Relative reactivity, OATA (OATA WT [3])	other results
1-acetonaphthone [Ketone 1i]	43%	–	Conversion (%) OATA (OATA WT [2]): 13%
CC(C)C(N)c1ccccc1 (racemic) [2-Methyl-1-phenylpropan-1-amine]	–	0.1%	–
CC(N)CO (racemic) [DL-Alaninol]	–	16%	–
CC(C)C(C)N (stereo not shown) [1,2-Dimethylpropylamine]	–	18%	–
CC(C)CC(C)N (stereo not shown) [1,3-Dimethylbutylamine]	–	3%	–
COCC(C)N (stereo not shown) [1-Methoxy-2-propylamine]	–	29%	–
CC(N)CCc1ccccc1 (stereo not shown) [1-Methyl-3-phenylpropylamine]	–	73%	–
CC(C)(C)C(N)c1ccccc1 (stereo not shown) [2,2-Dimethyl-1-phenylpropan-1-amine]	–	0.1%	–
CCCC(C)N (stereo not shown) [2-Aminopentane]	–	13%	–
CCC(=O)C(=O)O [2-oxobutanoic acid]	–	–	Relative activity, OATA WT (OATA WT [4]): 17.2%
CCCCC(=O)C(=O)O [2-oxohexanoic acid]	–	–	Relative activity, OATA WT (OATA WT [4]): 1%
CCCCCCC(=O)C(=O)O [2-oxooctanoic acid]	–	–	Relative activity, OATA WT (OATA WT [4]): 1%
CCCC(=O)C(=O)O [2-oxopentanoic acid]	–	–	Relative activity, OATA WT (OATA WT [4]): 0.6%
CC(C)C(=O)C(=O)O [3-methyl-2-oxobutyric acid]	–	–	Relative activity, OATA WT (OATA WT [4]): did not react
CC(N)c1ccc(F)cc1 (stereo not drawn) [4-Fluoro-α-methylbenzylamine]	–	31%	–
C[C@H](N)c1cccc2ccccc12 [(S)-1-(1-naphthyl)ethylamine]	–	0.5%	–
C[C@H](N)C1CC1 [(S)-1-Cyclopropylethylamine]	–	29%	–
N[C@H]1CCc2ccccc21 [(S)-1-aminoindan]	–	9%	–
CCCC[C@H](C)N [(S)-2-aminohexane]	–	31%	–
CCCCCC[C@H](C)N [(S)-2-aminooctane]	–	146%	–
COc1ccc([C@H](C)N)cc1 [(S)-4-methoxy-α-methylbenzylamine]	–	116%	–
Cc1ccc([C@H](C)N)cc1 [(S)-α,4-dimethylbenzylamine]	–	86%	–
CC[C@H](N)c1ccccc1 [(S)-α-ethylbenzylamine]	–	2%	–
C[C@H](N)c1ccccc1 [(S)-α-methylbenzylamine]	–	100%	kcat, OATA (OATA): 24000, 20000 ×10^−3 s^−1; Relative activity, OATA WT (OATA WT [5]): 100%

Molecule	Relative activity to acetophenone, OATA WT (OATA WT [1])	Relative reactivity, OATA (OATA WT [3])	other results
CCC[C@H](N)c1ccccc1 [(S)-α-propylbenzylamine]	–	0.2%	–
NCc1ccccc1 [Benzylamine]	–	274%	–
CC(C)N [Isopropylamine]	–	20%	kcat, OATA (OATA): 9700, 9300 ×10^−3 s^−1
CC(=O)c1ccccc1 [Ketone 1a, acetophenone]	100%	–	Relative activity, OATA WT (OATA WT [6]): 100%; kcat, OATA (OATA): 9.7, 540 ×10^−3 s^−1; Conversion (ARTAmut): 19%; activity relative to pyruvate [7]: 0.03%
CCC(=O)c1ccccc1 [Ketone 1b, propiophenone]	1%	–	Relative activity to acetophenone, OATA W58A (OATA W58A [8]): 14%; Relative activity to acetophenone, OATA W58V (OATA W58V): 16%; Relative activity to acetophenone, OATA W58I (OATA W58I): 14%; Relative activity to acetophenone, OATA W58L (OATA W58L): 2%; Relative activity to acetophenone, OATA W58M (OATA W58M): 17%; Relative activity, OATA WT (OATA WT [6]): 17%; Relative activity, OATA L57A (OATA L57A): 49%; Relative activity, OATA W58A (OATA W58A [9]): 259%; Relative activity, OATA L57A/W58A (OATA L57A/W58A): 387%; Relative activity, OATA L57A/W58A/V154A (OATA L57A/W58A/V154A): 821%
CCCC(=O)c1ccccc1 [Ketone 1c, butyrophenone]	0%	–	Relative activity, OATA WT (OATA WT [6]): 2%
CC(=O)c1ccc(C)cc1 [Ketone 1d, 4-methylacetophenone]	51%	–	Conversion (%) OATA (OATA WT [2]): 7%
COc1ccc(C(C)=O)cc1 [Ketone 1e, 4-methoxyacetophenone]	29%	–	–
CC(=O)CCc1ccccc1 [Ketone 1f, benzylacetone]	536%	–	Conversion (%) OATA (OATA WT [2]): 26%
O=C1CCc2ccccc21 [Ketone 1g]	–	–	Reaction rate OATA (OATA WT [10]): did not react
O=C1CCCc2ccccc21 [Ketone 1h]	–	–	Reaction rate OATA (OATA WT [10]): did not react
CCCC(C)=O [Ketone 1j, 2-pentanone]	83%	–	–
CCCCC(C)=O [Ketone 1k, 2-hexanone]	151%	–	Conversion (%) OATA (OATA WT [2]): 14%
CCCCCCC(C)=O [Ketone 1l, 2-octanone]	208%	–	Conversion (%) OATA (OATA WT [2]): 30%
CC(=O)C(C)C [Ketone 1m, 3-methyl 2-butanone]	161%	–	–
CC(=O)CC(C)C [Ketone 1n, 4-methyl-2-pentanone]	21%	–	–
CCC(C)=O [Ketone 2-butanone, 2-butanone]	317%	–	–
Cc1cccc(C)c1OCC(C)N (stereo not shown) [Mexiletine, reference compound]	–	27%	–
CC(=O)CO [hydroxyacetone]	364%	–	–
COCC(C)=O [methoxyacetone]	571%	–	–
CC(=O)C(=O)O [pyruvate, pyruvic acid]	–	–	Relative activity, OATA WT (OATA WT [4]): 100%
(Brucella anthropi ATCC 49188)	–	–	Km (CC(=O)C(=O)O): 0.12, 2.1 mM; kcat (CC(=O)C(=O)O): 2600, 19000; kcat/Km (CC(=O)C(=O)O): 22000, 9000
(S)-sec-butylamine	–	29%	–
cyclpropyl methyl ketone [Ketone 1o]	17%	–	–
